Reference: patent US12480137B2, “Plants having increased tolerance to herbicides” (BASF SE, priority 2014, dated 2025)

Columns and labels:
Assay type in all cases: in vivo, Arabidopsis thaliana
[1] = test system: Arabidopsis mutant line Cesa1_G1009D; experiment: Growth inhibition of Arabidopsis lines in 48-well plates, tolerance factor from IC50; conditions: growth inhibition seven to ten days after seeding
From the text: (§1) For selection of cellulose biosynthesis inhibitor resistant plants EMS mutagenized seed populations of Arabidopsis thaliana are used. EMS mutagenized seed populations are either bought from Lehle Seeds (1102 South Industrial Blvd. Suite D, Round Rock, Texas USA) or are generated as described elsewhere (Heim D R, et. al. (1989) Plant Physiol. 90: 146-150). Causative mutations in CESA wildtype sequences (e.g. SEQ ID NO: 1 or 3) are identified as described by Scheible W R et. al. (2001, Proc. Natl. Acad. of Sci. 98: 10079-10084), McCourt et. al. (WO2013/142968) or with the use of next generation sequencing methods as described by Austin R S, et. al. (2011) Plant Journal 67: 715-725.
(§2) Selected Arabidopsis thaliana lines were assayed for improved resistance to azines like 6-cyclopentyl-N4-(2,3,4,5,6-pentafluorophenyl)-1,3,5-triazine-2,4-diamine; 6-(1-fluoro-1-methyl-ethyl)-N4-(2,3,4,5,6-pentafluorophenyl)-1,3,5-triazine-2,4-diamine; 6-cyclohexyl-N2-(2,3,4,5,6-pentafluorophenyl)-1,3,5-triazine-2,4-diamine; 6-(2,6-difluorophenyl)-N2-(2,3,5,6-tetrafluorophenyl)-1,3,5-triazine-2,4-diamine; N2-(4-chloro-3,5,6-trifluoro-2-pyridyl)-6-(1-fluoro-1-methyl-ethyl)-1,3,5-triazine-2,4-diamine in 48-well plates. Therefore, M2 or M3 seeds are surface sterilized by stirring for 5 min in ethanol+water (70+30 by volume), rinsing one time with ethanol+water (70+30 by volume) and two times with sterile, deionized water. The seeds are resuspended in 0.1% agar dissolved in water (w/v) Four to five seeds per well are plated on solid nutrient medium consisting of half-strength murashige skoog nutrient solution, pH 5.8 (Murashige and Skoog (1962) Physiologia Plantarum 15: 473-497). Compounds are dissolved in dimethylsulfoxid (DMSO) and added to the medium prior solidification (final DMSO concentration 0.1%). Multi well plates are incubated in a growth chamber at 22° C., 75% relative humidity and 110 μmol Phot*m^−2*s^−1 with 14:10 h light:dark photoperiod. Growth inhibition is evaluated seven to ten days after seeding in comparison to wild type plants. Tolerance factors are calculated based on IC50 values of growth inhibition of transformed versus non-transformed Arabidopsis plants (Table 3).

[2] = test system: Arabidopsis mutant line Cesa1_G1013R; experiment: as above; conditions: growth inhibition seven to ten days after seeding
From the text: as §1, §2

[3] = test system: Arabidopsis mutant line Cesa3_S1040L; experiment: as above; conditions: growth inhibition seven to ten days after seeding
From the text: as §1, §2

[4] = test system: wildtype Arabidopsis plants; experiment: as above; conditions: growth inhibition seven to ten days after seeding
From the text: as §1, §2

[5] = test system: Arabidopsis mutant line Cesa3_S1037F; experiment: as above; conditions: growth inhibition seven to ten days after seeding
From the text: as §1, §2

[6] = test system: Arabidopsis mutant line Cesa3_S983F; experiment: as above; conditions: growth inhibition seven to ten days after seeding
From the text: as §1, §2

[7] = test system: Arabidopsis mutant line Cesa1_P1010L; experiment: as above; conditions: growth inhibition seven to ten days after seeding
From the text: as §1, §2

[8] = test system: Cesa3_S983F, fpx1-3 mutant line; experiment: Greenhouse phytotox, pre-emergent treatment
Protocol: (§3) Additionally, M2 or M3 Arabidopsis plants are tested for improved tolerance to cellulose biosynthesis-inhibiting herbicides in greenhouse studies (e. g. with the following cellulose biosynthesis-inhibiting herbicides: 6-cyclopentyl-N4-(2,3,4,5,6-pentafluorophenyl)-1,3,5-triazine-2,4-diamine; 6-(1-fluoro-1-methyl-ethyl)-N4-(2,3,4,5,6-pentafluorophenyl)-1,3,5-triazine-2,4-diamine; N4-(4-chloro-3,5,6-trifluoro-2-pyridyl)-6-(1-fluoro-1-methyl-ethyl)-1,3,5-triazine-2,4-diamine; 6-(2,6-difluorophenyl)-N4-(2,3,5,6-tetrafluorophenyl)-1,3,5-triazine-2,4-diamine; N4-(4-bromo-2,3,5,6-tetrafluoro-phenyl)-6-(1-fluoro-1-methyl-ethyl)-1,3,5-triazine-2,4-diamine.

[9] = test system: Cesa1_G1009D, fpx2-3 mutant line; experiment: Greenhouse phytotox, pre-emergent treatment
Protocol: as §3

[10] = test system: Cesa1_P1010L, fpx2-2 mutant line; experiment: Greenhouse phytotox, pre-emergent treatment
Protocol: as §3

[11] = test system: Cesa1_G1013R, fpx2-1 mutant line; experiment: Greenhouse phytotox, pre-emergent treatment
Protocol: as §3

[12] = test system: Cesa3_S1040L, fpx1-1 mutant line; experiment: Greenhouse phytotox, pre-emergent treatment
Protocol: as §3

[13] = test system: A. thaliana WT L. erecta; experiment: Greenhouse phytotox, pre-emergent treatment
Protocol: as §3

[14] = test system: Cesa3_S1037F, fpx1-2 mutant line; experiment: Greenhouse phytotox, pre-emergent treatment
Protocol: as §3

SMILES	Relative tolerance rate (wildtype = 1.0) [1]	Relative tolerance rate (wildtype = 1.0) [2]	Relative tolerance rate (wildtype = 1.0) [3]	Relative tolerance rate (wildtype = 1.0) [4]	Relative tolerance rate (wildtype = 1.0) [5]	Relative tolerance rate (wildtype = 1.0) [6]	Relative tolerance rate (wildtype = 1.0) [7]	Phytotox value on a scale from 0-100 (100 is 100% damage) ([8]; 0.98 g ai/ha)	Phytotox value on a scale from 0-100 (100 is 100% damage) ([8]; 3.91 g ai/ha)	Phytotox value on a scale from 0-100 (100 is 100% damage) ([9]; 0.98 g ai/ha)	Phytotox value on a scale from 0-100 (100 is 100% damage) ([9]; 3.91 g ai/ha)	Phytotox value on a scale from 0-100 (100 is 100% damage) ([10]; 0.98 g ai/ha)	Phytotox value on a scale from 0-100 (100 is 100% damage) ([10]; 3.91 g ai/ha)	Phytotox value on a scale from 0-100 (100 is 100% damage) ([11]; 0.98 g ai/ha)	Phytotox value on a scale from 0-100 (100 is 100% damage) ([11]; 3.91 g ai/ha)	Phytotox value on a scale from 0-100 (100 is 100% damage) ([12]; 0.98 g ai/ha)	Phytotox value on a scale from 0-100 (100 is 100% damage) ([12]; 3.91 g ai/ha)	Phytotox value on a scale from 0-100 (100 is 100% damage) ([13]; 0.98 g ai/ha)	Phytotox value on a scale from 0-100 (100 is 100% damage) ([13]; 3.91 g ai/ha)	Phytotox value on a scale from 0-100 (100 is 100% damage) ([14]; 0.98 g ai/ha)	other results
CC(C)(F)c1nc(N)nc(Nc2c(F)c(F)c(F)c(F)c2F)n1 [6-(1-fluoro-1-methyl-ethyl)-N4-(2,3,4,5,6-pentafluorophenyl)-1,3,5-triazine-2,4-diamine]	2	4	2	1	4	1	1	75	98	97	100	99	100	63	97	75	98	100	100	30	Phytotox value on a scale from 0-100 (100 is 100% damage) ([8]; 0.0625 g ai/ha): 78; Phytotox value on a scale from 0-100 (100 is 100% damage) ([8]; 0.25 g ai/ha): 45; Phytotox value on a scale from 0-100 (100 is 100% damage) ([9]; 0.0625 g ai/ha): 65; Phytotox value on a scale from 0-100 (100 is 100% damage) ([9]; 0.25 g ai/ha): 78; Phytotox value on a scale from 0-100 (100 is 100% damage) ([10]; 0.0625 g ai/ha): 43; Phytotox value on a scale from 0-100 (100 is 100% damage) ([10]; 0.25 g ai/ha): 50; Phytotox value on a scale from 0-100 (100 is 100% damage) ([11]; 0.0625 g ai/ha): 13; Phytotox value on a scale from 0-100 (100 is 100% damage) ([11]; 0.25 g ai/ha): 65; Phytotox value on a scale from 0-100 (100 is 100% damage) ([12]; 0.0625 g ai/ha): 20; Phytotox value on a scale from 0-100 (100 is 100% damage) ([12]; 0.25 g ai/ha): 65; Phytotox value on a scale from 0-100 (100 is 100% damage) ([13]; 0.0625 g ai/ha): 38; Phytotox value on a scale from 0-100 (100 is 100% damage) ([13]; 0.25 g ai/ha): 78; Phytotox value on a scale from 0-100 (100 is 100% damage) ([14]; 0.0625 g ai/ha): 10; Phytotox value on a scale from 0-100 (100 is 100% damage) ([14]; 0.25 g ai/ha): 20; Phytotox value on a scale from 0-100 (100 is 100% damage) ([14]; 3.91 g ai/ha): 80
Nc1nc(Nc2c(F)c(F)cc(F)c2F)nc(-c2c(F)cccc2F)n1 [6-(2,6-difluorophenyl)-N2-(2,3,5,6-tetrafluorophenyl)-1,3,5-triazine-2,4-diamine]	1	13	13	1	1	1	2	18	35	65	38	48	35	15	35	13	8	30	70	28	Phytotox value on a scale from 0-100 (100 is 100% damage) ([8]; 15.63 g ai/ha): 43; Phytotox value on a scale from 0-100 (100 is 100% damage) ([8]; 62.5 g ai/ha): 33; Phytotox value on a scale from 0-100 (100 is 100% damage) ([9]; 15.63 g ai/ha): 18; Phytotox value on a scale from 0-100 (100 is 100% damage) ([9]; 62.5 g ai/ha): 95; Phytotox value on a scale from 0-100 (100 is 100% damage) ([10]; 15.63 g ai/ha): 65; Phytotox value on a scale from 0-100 (100 is 100% damage) ([10]; 62.5 g ai/ha): 98; Phytotox value on a scale from 0-100 (100 is 100% damage) ([11]; 15.63 g ai/ha): 28; Phytotox value on a scale from 0-100 (100 is 100% damage) ([11]; 62.5 g ai/ha): 40; Phytotox value on a scale from 0-100 (100 is 100% damage) ([12]; 15.63 g ai/ha): 25; Phytotox value on a scale from 0-100 (100 is 100% damage) ([12]; 62.5 g ai/ha): 28; Phytotox value on a scale from 0-100 (100 is 100% damage) ([13]; 15.63 g ai/ha): 90; Phytotox value on a scale from 0-100 (100 is 100% damage) ([13]; 62.5 g ai/ha): 100; Phytotox value on a scale from 0-100 (100 is 100% damage) ([14]; 3.91 g ai/ha): 65; Phytotox value on a scale from 0-100 (100 is 100% damage) ([14]; 15.63 g ai/ha): 73; Phytotox value on a scale from 0-100 (100 is 100% damage) ([14]; 62.5 g ai/ha): 99
Nc1nc(Nc2c(F)c(F)c(F)c(F)c2F)nc(C2CCCCC2)n1 [6-cyclohexyl-N2-(2,3,4,5,6-pentafluorophenyl)-1,3,5-triazine-2,4-diamine]	1	4	10	1	1	1	1	–	–	–	–	–	–	–	–	–	–	–	–	–	–
CC(C)(F)c1nc(N)nc(Nc2c(F)c(F)c(Br)c(F)c2F)n1 [N4-(4-bromo-2,3,5,6-tetrafluoro-phenyl)-6-(1-fluoro-1-methyl-ethyl)-1,3,5-triazine-2,4-diamine]	–	–	–	–	–	–	–	23	25	35	68	25	88	10	35	5	63	35	97	18	Phytotox value on a scale from 0-100 (100 is 100% damage) ([8]; 0.25 g ai/ha): 35; Phytotox value on a scale from 0-100 (100 is 100% damage) ([8]; 15.63 g ai/ha): 45; Phytotox value on a scale from 0-100 (100 is 100% damage) ([9]; 0.25 g ai/ha): 50; Phytotox value on a scale from 0-100 (100 is 100% damage) ([9]; 15.63 g ai/ha): 99; Phytotox value on a scale from 0-100 (100 is 100% damage) ([10]; 0.25 g ai/ha): 25; Phytotox value on a scale from 0-100 (100 is 100% damage) ([10]; 15.63 g ai/ha): 99; Phytotox value on a scale from 0-100 (100 is 100% damage) ([11]; 0.25 g ai/ha): 10; Phytotox value on a scale from 0-100 (100 is 100% damage) ([11]; 15.63 g ai/ha): 73; Phytotox value on a scale from 0-100 (100 is 100% damage) ([12]; 0.25 g ai/ha): 13; Phytotox value on a scale from 0-100 (100 is 100% damage) ([12]; 15.63 g ai/ha): 93; Phytotox value on a scale from 0-100 (100 is 100% damage) ([13]; 0.25 g ai/ha): 8; Phytotox value on a scale from 0-100 (100 is 100% damage) ([13]; 15.63 g ai/ha): 100; Phytotox value on a scale from 0-100 (100 is 100% damage) ([14]; 0.25 g ai/ha): 28; Phytotox value on a scale from 0-100 (100 is 100% damage) ([14]; 3.91 g ai/ha): 33; Phytotox value on a scale from 0-100 (100 is 100% damage) ([14]; 15.63 g ai/ha): 30
